From ChEMBL document CHEMBL3396984, “Structure-activity relationship study of diphenylamine-based estrogen receptor (ER) antagonists” (Bioorg Med Chem, 2015)
Calls of active or inactive are those of the source. No cut-off for these calls is given here.

Experiments:
MCF7 [1] = assay: Antiproliferative activity against human MCF7 cells after 5 days by WST-8 assay; format: functional, cell-based
MCF7 [2] = assay: Estrogenic activity in human MCF7 cells; format: functional, cell-based
MCF7 [3] = assay: Ratio of tamoxifen IC50 to compound IC50 for human MCF7 cells; format: functional
[4] = Homo sapiens, MCF7, 120 h, read-out: IC50

CCCCCCN(c1ccc(O)cc1)c1ccc(OCCN2CCCC2)cc1
Activity (MCF7 [1]): Dose-dependent effect
IC50 (MCF7 [1]; [4]): 2700 nM
Activity (MCF7 [2]): inactive

CN(C)CCCOc1ccc(N(c2ccc(O)cc2)S(=O)(=O)c2ccccc2)cc1
Activity (MCF7 [1]): Dose-dependent effect
IC50 (MCF7 [1]; [4]): 2200 nM
Activity (MCF7 [2]): inactive

CC/C(=C(\c1ccccc1)c1ccc(OCCN(C)C)cc1)c1ccccc1 [TAMOXIFEN]
Activity (MCF7 [1]): Dose-dependent effect
IC50 (MCF7 [1]; [4]): 2100 nM

CCCCCCN(c1ccc(O)cc1)c1ccc(OCCN2CCCCCC2)cc1
Activity (MCF7 [1]): Dose-dependent effect
IC50 (MCF7 [1]; [4]): 1400 nM
Activity (MCF7 [2]): inactive

CCN(CC)CCOc1ccc(N(Cc2ccccc2)c2ccc(O)cc2)cc1
Activity (MCF7 [1]): Dose-dependent effect
IC50 (MCF7 [1]; [4]): 1900 nM
Activity (MCF7 [2]): inactive

Oc1ccc(N(Cc2ccccc2)c2ccc(OCCN3CCCC3)cc2)cc1
Activity (MCF7 [1]): Dose-dependent effect
IC50 (MCF7 [1]; [4]): 1300 nM
Activity (MCF7 [2]): inactive

O=S(=O)(c1ccccc1)N(c1ccc(O)cc1)c1ccc(OCCN2CCCC2)cc1
Activity (MCF7 [1]): Dose-dependent effect
IC50 (MCF7 [1]; [4]): 500 nM
Activity (MCF7 [2]): inactive

Oc1ccc(N(Cc2ccccc2)c2ccc(OCCN3CCCCCC3)cc2)cc1
Activity (MCF7 [1]): Dose-dependent effect
IC50 (MCF7 [1]; [4]): 660 nM
Activity (MCF7 [2]): inactive

Oc1ccc(N(Cc2ccccc2)c2ccc(OCCN3CCCCC3)cc2)cc1
Activity (MCF7 [1]): Dose-dependent effect
IC50 (MCF7 [1]; [4]): 800 nM
Activity (MCF7 [2]): inactive

CCCCCCN(c1ccc(O)cc1)c1ccc(OCCN(C)C)cc1
Activity (MCF7 [1]): Dose-dependent effect
IC50 (MCF7 [1]; [4]): 2400 nM
Activity (MCF7 [2]): inactive

CCCCCCN(c1ccc(O)cc1)c1ccc(OCCCN(C)C)cc1
Activity (MCF7 [1]): Dose-dependent effect
IC50 (MCF7 [1]; mcf7): Not Active
Activity (MCF7 [2]): inactive

O=S(=O)(c1ccccc1)N(c1ccc(O)cc1)c1ccc(OCCN2CCCCC2)cc1
Activity (MCF7 [1]): Dose-dependent effect
IC50 (MCF7 [1]; [4]): 320 nM
Activity (MCF7 [2]): inactive

CCCCCCN(c1ccc(O)cc1)c1ccc(OCCN(CC)CC)cc1
Activity (MCF7 [1]): Dose-dependent effect
IC50 (MCF7 [1]; [4]): 1400 nM
Activity (MCF7 [2]): inactive

CCC(=C(c1ccc(O)cc1)c1ccc(OCCN(C)C)cc1)c1ccccc1
Activity (MCF7 [1]): Dose-dependent effect
IC50 (MCF7 [1]; [4]): 8900 nM

CCCCCCN(c1ccc(O)cc1)c1ccc(OCCN2CCCCC2)cc1
Activity (MCF7 [1]): Dose-dependent effect
IC50 (MCF7 [1]; [4]): 130 nM
Activity (MCF7 [2]): inactive
Ratio IC50 (MCF7 [3]): 10

CN(C)CCOc1ccc(N(c2ccc(O)cc2)S(=O)(=O)c2ccccc2)cc1
Activity (MCF7 [1]): Dose-dependent effect
IC50 (MCF7 [1]; [4]): 9300 nM
Activity (MCF7 [2]): inactive

CCN(CC)CCOc1ccc(N(c2ccc(O)cc2)S(=O)(=O)c2ccccc2)cc1
Activity (MCF7 [1]): Dose-dependent effect
IC50 (MCF7 [1]; [4]): 1300 nM
Activity (MCF7 [2]): inactive

CN(C)CCOc1ccc(N(Cc2ccccc2)c2ccc(O)cc2)cc1
Activity (MCF7 [1]): Dose-dependent effect
IC50 (MCF7 [1]; [4]): 4400 nM
Activity (MCF7 [2]): inactive

CN(C)CCCOc1ccc(N(Cc2ccccc2)c2ccc(O)cc2)cc1
Activity (MCF7 [1]): Dose-dependent effect
IC50 (MCF7 [1]; [4]): 2800 nM
Activity (MCF7 [2]): inactive
